# Test results taken from US7009052B2, “Sulfonamide derivatives” (Warner Lambert Company LLC, priority 2003, dated 2006).
# Target: T1, androgen receptor (Homo sapiens, UniProt P10275)
# T1 sequence (P10275 1-920 Q868H): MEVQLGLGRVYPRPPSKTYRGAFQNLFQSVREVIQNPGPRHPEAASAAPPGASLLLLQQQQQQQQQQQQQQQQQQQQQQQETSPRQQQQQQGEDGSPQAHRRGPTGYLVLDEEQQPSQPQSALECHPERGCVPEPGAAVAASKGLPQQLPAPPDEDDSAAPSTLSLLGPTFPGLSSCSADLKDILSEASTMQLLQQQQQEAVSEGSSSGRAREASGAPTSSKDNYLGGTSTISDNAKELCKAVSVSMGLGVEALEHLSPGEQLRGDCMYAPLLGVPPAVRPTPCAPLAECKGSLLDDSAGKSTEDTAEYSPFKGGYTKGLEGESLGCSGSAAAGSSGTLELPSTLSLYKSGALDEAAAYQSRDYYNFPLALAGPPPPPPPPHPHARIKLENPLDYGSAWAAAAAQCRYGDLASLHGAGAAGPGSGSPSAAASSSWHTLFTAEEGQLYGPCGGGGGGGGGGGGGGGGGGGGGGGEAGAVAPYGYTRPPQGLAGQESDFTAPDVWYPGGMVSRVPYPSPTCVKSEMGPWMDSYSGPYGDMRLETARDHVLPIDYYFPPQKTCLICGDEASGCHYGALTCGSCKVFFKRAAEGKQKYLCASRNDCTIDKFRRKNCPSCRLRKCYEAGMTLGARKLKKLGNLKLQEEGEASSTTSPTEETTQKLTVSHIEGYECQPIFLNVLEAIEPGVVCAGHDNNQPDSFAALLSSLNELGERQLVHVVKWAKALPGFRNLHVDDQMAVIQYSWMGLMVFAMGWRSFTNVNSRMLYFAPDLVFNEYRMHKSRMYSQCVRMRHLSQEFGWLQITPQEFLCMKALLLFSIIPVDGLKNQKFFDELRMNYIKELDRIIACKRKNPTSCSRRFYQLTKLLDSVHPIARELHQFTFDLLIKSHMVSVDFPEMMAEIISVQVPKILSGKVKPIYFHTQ
# Assay: AR Antagonist Cell Assay (MMTV-luciferase reporter, DHT-induced)
# Type: cell-based
# Details: MDA-MB453-MMTV clone 54-19 cells, 100 pM DHT, 17 hr
# Summary of the method: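 Stably transfected MDA-MB453 cells carrying an ARE-containing MMTV promoter–firefly luciferase reporter, pretreated 30 min with compound at 10 uM or 1 uM in 1% charcoal-treated serum medium. Then stimulated with 100 pM DHT for 17 hr at 37° C. and luminescence read; expressed as % inhibition of DHT-induced signal.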
row,SMILES,IC50 [µM]
1,"O=c1cc(C(F)(F)F)c2cc(S(=O)(=O)N[C@H]3CCCC[C@H]3OCc3ccccc3)ccc2[nH]1 [Example 160, 2-Oxo-4-trifluoromethyl-1,2-dihydroquinoline-6-sulfonic acid(2-benzyloxycyclohexyl)amide]",> 10
2,"O=c1cc(C(F)(F)F)c2cc(S(=O)(=O)Nc3ccc4c(c3)CCC4)ccc2[nH]1 [Example 96, 2-Oxo-4-trifluoromethyl-1,2-dihydroquinoline-6-sulfonic acidindan-5-ylamide]",0.14
3,"CC(C)c1ccc(NS(=O)(=O)c2ccc3c(c2)c(C(F)(F)F)cc(=O)n3C)cc1 [Example 25, 1-Methyl-2-oxo-4-trifluoromethyl-1,2-dihydroquinoline-6-sulfonicacid (4-isopropylphenyl)amide]",8.61
4,"CCOc1ccc(NS(=O)(=O)c2ccc3c(c2)c(C(F)(F)F)cc(=O)n3C)cc1 [Example 44, 1-Methyl-2-oxo-4-trifluoromethyl-1,2-dihydroquinoline-6-sulfonicacid (4-ethoxyphenyl)amide]",3.76
5,"Cn1c(=O)cc(C(F)(F)F)c2cc(S(=O)(=O)Nc3cccc(Cc4ccccc4)c3)ccc21 [Example 43, 1-Methyl-2-oxo-4-trifluoromethyl-1,2-dihydroquinoline-6-sulfonicacid (3-benzylphenyl)amide]",> 10
6,"Cn1c(=O)cc(C(F)(F)F)c2cc(S(=O)(=O)N(CCO)Cc3ccccc3)ccc21 [Example 6, 1-Methyl-2-oxo-4-trifluoromethyl-1,2-dihydroquinoline-6-sulfonicacid benzyl(2-hydroxyethyl)-amide]",> 10
7,"CCCCN(CC)S(=O)(=O)c1ccc2[nH]c(=O)cc(C(F)(F)F)c2c1 [Example 69, 2-Oxo-4-trifluoromethyl-1,2-dihydroquinoline-6-sulfonic acidbutylethylamide]",0.2
8,"O=c1cc(C(F)(F)F)c2cc(S(=O)(=O)NCc3ccccc3OC(F)F)ccc2[nH]1 [Example 151, 2-Oxo-4-trifluoromethyl-1,2-dihydroquinoline-6-sulfonic acid2-difluoromethoxybenzylamide]",0.73
9,"Cn1c(=O)cc(C(F)(F)F)c2cc(S(=O)(=O)NCc3cc(Cl)ccc3F)ccc21 [Example 59, 1-Methyl-2-oxo-4-trifluoromethyl-1,2-dihydroquinoline-6-sulfonicacid 5-chloro-2-fluorobenzylamide]",> 10
10,"Cc1ccc(NS(=O)(=O)c2ccc3c(c2)c(C(F)(F)F)cc(=O)n3C)cc1 [Example 14, 1-Methyl-2-oxo-4-trifluoromethyl-1,2-dihydroquinoline-6-sulfonicacid p-tolylamide]",1.03
11,"Cn1c(=O)cc(C(F)(F)F)c2cc(S(=O)(=O)NCCc3ccccc3)ccc21 [Example 50, 1-Methyl-2-oxo-4-trifluoromethyl-1,2-dihydroquinoline-6-sulfonicacid phenethylamide]",1.55
12,"O=c1cc(C(F)(F)F)c2cc(S(=O)(=O)Nc3cccc(OC(F)(F)F)c3)ccc2[nH]1 [Example 112, 2-Oxo-4-trifluoromethyl-1,2-dihydroquinoline-6-sulfonic acid(3-trifluoromethoxyphenyl)amide]",0.12
13,"Cn1c(=O)cc(C(F)(F)F)c2cc(S(=O)(=O)Nc3cccc(OC(F)F)c3)ccc21 [Example 38, 1-Methyl-2-oxo-4-trifluoromethyl-1,2-dihydroquinoline-6-sulfonicacid (3-difluoromethoxy-phenyl)amide]",5.63
14,"CCCCCN(CCO)S(=O)(=O)c1ccc2c(c1)c(C(F)(F)F)cc(=O)n2C [Example 7, 1-Methyl-2-oxo-4-trifluoromethyl-1,2-dihydroquinoline-6-sulfonicacid (2-hydroxyethyl)-pentylamide]",> 10

# The remaining lines, values ahead:
row,IC50 [µM],SMILES
1,1.83,"CC(C)(Cc1ccc(F)cc1)NS(=O)(=O)c1ccc2[nH]c(=O)cc(C(F)(F)F)c2c1 [Example 150, 2-Oxo-4-trifluoromethyl-1,2-dihydroquinoline-6-sulfonic acid[2-(4-fluorophenyl)-1,1-dimethylethyl]amide]"
2,> 10,"Cc1ccc(F)c(CNS(=O)(=O)c2ccc3[nH]c(=O)cc(C(F)(F)F)c3c2)c1Cl [Example 152, 2-Oxo-4-trifluoromethyl-1,2-dihydroquinoline-6-sulfonic acid2-chloro-6-fluoro-3-methylbenzylamide]"
3,> 10,"O=c1cc(C(F)(F)F)c2cc(S(=O)(=O)NCc3cccc(Cl)c3F)ccc2[nH]1 [Example 141, 2-Oxo-4-trifluoromethyl-1,2-dihydroquinoline-6-sulfonic acid3-chloro-2-fluorobenzylamide]"
4,0.83,"Cc1cccc(NS(=O)(=O)c2ccc3[nH]c(=O)cc(C(F)(F)F)c3c2)c1 [Example 82, 2-Oxo-4-trifluoromethyl-1,2-dihydroquinoline-6-sulfonic acidm-tolylamide]"
5,0.84,"N#CCc1ccc(NS(=O)(=O)c2ccc3[nH]c(=O)cc(C(F)(F)F)c3c2)cc1 [Example 95, 2-Oxo-4-trifluoromethyl-1,2-dihydroquinoline-6-sulfonic acid(4-cyanomethylphenyl)amide]"
6,0.26,"O=c1cc(C(F)(F)F)c2cc(S(=O)(=O)Nc3cccc(OC(F)F)c3)ccc2[nH]1 [Example 106, 2-Oxo-4-trifluoromethyl-1,2-dihydroquinoline-6-sulfonic acid(3-difluoromethoxyphenyl)amide]"
7,0.45,"C#Cc1ccc(NS(=O)(=O)c2ccc3[nH]c(=O)cc(C(F)(F)F)c3c2)cc1 [Example 86, 2-Oxo-4-trifluoromethyl-1,2-dihydroquinoline-6-sulfonic acid(4-ethynylphenyl)amide]"
8,2.98,"O=c1cc(C(F)(F)F)c2cc(S(=O)(=O)NCc3c(F)cccc3F)ccc2[nH]1 [Example 139, 2-Oxo-4-trifluoromethyl-1,2-dihydroquinoline-6-sulfonic acid2,6-difluorobenzylamide]"
9,> 10,"O=c1cc(C(F)(F)F)c2cc(S(=O)(=O)NCc3ccc(F)cc3)ccc2[nH]1 [Example 129, 2-Oxo-4-trifluoromethyl-1,2-dihydroquinoline-6-sulfonic acid4-fluorobenzylamide]"
10,0.55,"CC(C)N(C)S(=O)(=O)c1ccc2[nH]c(=O)cc(C(F)(F)F)c2c1 [Example 70, 2-Oxo-4-trifluoromethyl-1,2-dihydroquinoline-6-sulfonic acidisopropylmethylamide]"
11,> 10,"O=c1cc(C(F)(F)F)c2cc(S(=O)(=O)Nc3ccccc3Br)ccc2[nH]1 [Example 110, 2-Oxo-4-trifluoromethyl-1,2-dihydroquinoline-6-sulfonic acid(2-bromophenyl)amide]"
12,2.34,"CC(C)NS(=O)(=O)c1ccc2[nH]c(=O)cc(C(F)(F)F)c2c1 [Example 117, 2-Oxo-4-trifluoromethyl-1,2-dihydroquinoline-6-sulfonic acidisopropylamide]"
13,2.94,"C[C@@H](NS(=O)(=O)c1ccc2[nH]c(=O)cc(C(F)(F)F)c2c1)c1ccccc1 [Example 125, 2-Oxo-4-trifluoromethyl-1,2-dihydroquinoline-6-sulfonic acid(1-phenylethyl)amide]"
14,2.65,"O=c1cc(C(F)(F)F)c2cc(S(=O)(=O)NCCc3ccccc3)ccc2[nH]1 [Example 128, 2-Oxo-4-trifluoromethyl-1,2-dihydroquinoline-6-sulfonic acidphenethylamide]"
